Results as given in ChEMBL document CHEMBL1201862, “PubChem BioAssay data set” (2004).
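Results reflect a 48-hour exposure of cells in 96-well plates to compound at five concentrations. Here, GI50 denotes the concentration required for 50% inhibition of growth.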 Activity calls are given as the source filed them. Rule as the data show it: active = GI50 up to about 1.1 µM and inactive = higher.

How the values were obtained:
Test in all cases: inhibition of tumour cell growth, NCI panel, 48 h
A498 = test system: A498
BT-549 = test system: BT-549
CAKI-1 = test system: CAKI-1
CCRF-CEM = test system: CCRF-CEM
EKVX = test system: EKVX
HT-29 = test system: HT-29
IGROV-1 = test system: IGROV-1
M14 = test system: M14
MDA-N = test system: MDA-N
SF-268 = test system: SF-268
SF-295 = test system: SF-295
SR = test system: SR
TK-10 = test system: TK-10
UACC-62 = test system: UACC-62
COLO 205 = test system: COLO 205
MCF7 = test system: MCF7
U-251 = test system: U-251
Hs-578T = test system: Hs-578T
MDA-MB-435 = test system: MDA-MB-435

Structure (SMILES) | GI50 (A498) | GI50 (BT-549) | GI50 (CAKI-1) | GI50 (CCRF-CEM) | GI50 (EKVX) | GI50 (HT-29) | GI50 (IGROV-1) | GI50 (M14) | GI50 (MDA-N) | GI50 (SF-268) | GI50 (SF-295) | GI50 (SR) | GI50 (TK-10) | GI50 (UACC-62) | GI50 (COLO 205) | GI50 (MCF7) | GI50 (U-251) | GI50 (Hs-578T) | GI50 (MDA-MB-435)
Cc1cc(C)c2c(c1)C/C(=C\c1cccc(C)c1C(=O)O)C2=O | 63.1 µM (inactive) | 42.9 µM (inactive) | > 100 µM (inactive) | 36.6 µM (inactive) | 60.7 µM (inactive) | 72.6 µM (inactive) | 50.7 µM (inactive) | 88.9 µM (inactive) | 35.3 µM (inactive) | 24.4 µM (inactive) | 78 µM (inactive) | > 100 µM (inactive) | > 100 µM (inactive) | 47.8 µM (inactive) |  |  |  |  | 
ClCCCC1COc2ccccc2O1 (centres undefined) |  | 23.1 µM (inactive) | > 100 µM (inactive) | > 100 µM (inactive) | > 100 µM (inactive) | > 100 µM (inactive) | 46.3 µM (inactive) | > 100 µM (inactive) | > 100 µM (inactive) | 96.6 µM (inactive) | > 100 µM (inactive) | > 100 µM (inactive) | > 100 µM (inactive) | 98.6 µM (inactive) | > 100 µM (inactive) | > 100 µM (inactive) | > 100 µM (inactive) |  | 
NCCSCC(N)C(=O)O (centres undefined) | > 497 µM (inactive) | > 100 µM (inactive) | > 100 µM (inactive) | 29 µM (inactive) | > 497 µM (inactive) | 39.5 µM (inactive) | > 87.5 µM (inactive) | > 497 µM (inactive) |  | > 497 µM (inactive) | > 497 µM (inactive) | > 497 µM (inactive) | > 497 µM (inactive) | > 497 µM (inactive) | > 75.9 µM (inactive) | 46.7 µM (inactive) | > 497 µM (inactive) | > 95.1 µM (inactive) | 51.2 µM (inactive)
COc1nc2c(c(=O)n1C)N=C(c1ccccc1)[C@H](C(CC(=O)c1ccccc1)c1ccccc1)C(c1ccccc1)N2 (some centres undefined) | > 100 µM (inactive) | > 100 µM (inactive) | 27 µM (inactive) | > 100 µM (inactive) | 22.2 µM (inactive) | 44.7 µM (inactive) | 49.3 µM (inactive) | > 100 µM (inactive) | 35.8 µM (inactive) |  | 70 µM (inactive) | 78 µM (inactive) |  | > 100 µM (inactive) | 98.9 µM (inactive) | 36.1 µM (inactive) | > 100 µM (inactive) |  | > 100 µM (inactive)
COc1cc2cc(C(=O)N3CC(CCl)c4c3cc(NC(=O)C(C)Nc3c([N+](=O)[O-])cc(C(=O)NCCN(C)C)cc3[N+](=O)[O-])c3ccccc43)[nH]c2c(OC)c1OC (centres undefined) | 0.212 µM (active) | 0.187 µM (active) | 0.22 µM (active) | < 0.01 µM (active) | 0.229 µM (active) | 0.055 µM (active) | 0.12 µM (active) | 0.187 µM (active) | 0.158 µM (active) | 0.0202 µM (active) | 0.129 µM (active) |  | 0.333 µM (active) | 0.0586 µM (active) | 0.0515 µM (active) | 0.0118 µM (active) | 0.0178 µM (active) |  | 0.16 µM (active)
Cc1ccc(-c2c(C#N)c(-c3ccccc3)n(NS(=O)(=O)c3ccccc3)c(=O)c2C#N)cc1 | > 100 µM (inactive) | 64 µM (inactive) | > 100 µM (inactive) | 32.1 µM (inactive) | > 100 µM (inactive) | > 100 µM (inactive) | 40.6 µM (inactive) | 93.3 µM (inactive) | 92.7 µM (inactive) | 63.1 µM (inactive) | 60.7 µM (inactive) |  | > 100 µM (inactive) | 95.5 µM (inactive) | > 100 µM (inactive) | 76.2 µM (inactive) | 81.7 µM (inactive) |  | 99.8 µM (inactive)
Nc1ncnc2c1ncn2-c1ccc([N+](=O)[O-])cn1 | > 100 µM (inactive) | > 100 µM (inactive) | > 100 µM (inactive) | > 100 µM (inactive) |  | > 100 µM (inactive) |  | > 100 µM (inactive) | > 100 µM (inactive) | > 100 µM (inactive) | > 100 µM (inactive) |  | > 100 µM (inactive) | > 100 µM (inactive) | > 100 µM (inactive) | > 100 µM (inactive) | > 100 µM (inactive) | 61.9 µM (inactive) | > 100 µM (inactive)
Cn1c(=O)nc2n(CCO)c(-c3ccccc3)c(-c3ccccc3)nc-2c1=O | > 100 µM (inactive) | > 100 µM (inactive) | > 100 µM (inactive) | > 100 µM (inactive) | > 100 µM (inactive) | > 100 µM (inactive) | > 100 µM (inactive) | > 100 µM (inactive) | > 100 µM (inactive) | > 100 µM (inactive) | > 100 µM (inactive) | > 100 µM (inactive) | > 100 µM (inactive) | > 100 µM (inactive) | > 100 µM (inactive) |  | > 100 µM (inactive) | 86.3 µM (inactive) | > 100 µM (inactive)
CS(=O)(=O)OCOS(C)(=O)=O | > 100 µM (inactive) | > 100 µM (inactive) | 69 µM (inactive) | 18.5 µM (inactive) | > 100 µM (inactive) | 48.3 µM (inactive) | > 100 µM (inactive) | > 100 µM (inactive) | > 100 µM (inactive) |  | > 100 µM (inactive) | 20.2 µM (inactive) | > 100 µM (inactive) | > 100 µM (inactive) | 75.3 µM (inactive) | 34.4 µM (inactive) | > 100 µM (inactive) |  | > 100 µM (inactive)
COc1cc2ccnc3c2c(c1O)N(C)C=C3 | 15.9 µM (inactive) | 9.08 µM (inactive) | 4.92 µM (inactive) | 3.88 µM (inactive) | 17.4 µM (inactive) |  | 6.11 µM (inactive) | 17 µM (inactive) | 3.91 µM (inactive) | 17.7 µM (inactive) | 7.78 µM (inactive) |  | 16.2 µM (inactive) | 9.93 µM (inactive) | 20.7 µM (inactive) | 7.35 µM (inactive) | 24.9 µM (inactive) | 18.7 µM (inactive) | 11.6 µM (inactive)
O=C(OCC(Cl)(Cl)Cl)N1CC[C@H](C2CCCCC2)C1 |  | 24.2 µM (inactive) | 31.6 µM (inactive) | 15.5 µM (inactive) | 16.9 µM (inactive) |  | 16.4 µM (inactive) | 20.7 µM (inactive) | 34.9 µM (inactive) | 21 µM (inactive) | 16.2 µM (inactive) | 16.3 µM (inactive) | 18.8 µM (inactive) | 22.1 µM (inactive) | 18.8 µM (inactive) | 18.6 µM (inactive) | 1.09 µM (active) |  | 
COC(=O)C(NC(=O)C12CCC(C)(C(=O)O1)C2(C)C)c1cc(C(C)(C)C)c(O)c(C(C)(C)C)c1 (centres undefined) | > 100 µM (inactive) | > 100 µM (inactive) | > 100 µM (inactive) | 39.9 µM (inactive) | > 100 µM (inactive) | 72.9 µM (inactive) | > 100 µM (inactive) | > 100 µM (inactive) |  | > 100 µM (inactive) | > 100 µM (inactive) | 68.2 µM (inactive) | 57.7 µM (inactive) | > 100 µM (inactive) | 49.4 µM (inactive) | 47.5 µM (inactive) | 73.1 µM (inactive) | 94 µM (inactive) | > 100 µM (inactive)
COc1cc(CNC2=NCCC2)cc(OC)c1OC |  | > 100 µM (inactive) | > 100 µM (inactive) | > 100 µM (inactive) | 56.1 µM (inactive) | > 100 µM (inactive) | > 100 µM (inactive) | > 100 µM (inactive) | 34.5 µM (inactive) | > 100 µM (inactive) | > 100 µM (inactive) |  | > 100 µM (inactive) | > 100 µM (inactive) | > 100 µM (inactive) | > 100 µM (inactive) | 53.3 µM (inactive) |  | 
C=C1C(=O)O[C@H]2[C@H]3O[C@@H](C[C@@H]12)[C@](C)(O)CC[C@@H]1O[C@@]1(C)CCC[C@H]3C | 23.6 µM (inactive) | 12.2 µM (inactive) | 14.2 µM (inactive) | 11.4 µM (inactive) | 15.6 µM (inactive) | 25.6 µM (inactive) | 14.7 µM (inactive) | 12 µM (inactive) |  | 15.6 µM (inactive) | 68.9 µM (inactive) | 16.5 µM (inactive) | 17.1 µM (inactive) | 16.5 µM (inactive) | 16.4 µM (inactive) | 21.4 µM (inactive) | 22.4 µM (inactive) | 30.3 µM (inactive) | 17.1 µM (inactive)
CC(C)(C)OC(=O)NCCC1CNc2ccccc21 (centres undefined) | > 100 µM (inactive) | > 100 µM (inactive) | > 100 µM (inactive) |  | > 100 µM (inactive) | > 100 µM (inactive) | > 100 µM (inactive) | > 100 µM (inactive) | > 100 µM (inactive) | > 100 µM (inactive) | > 100 µM (inactive) |  | > 100 µM (inactive) | > 100 µM (inactive) | > 100 µM (inactive) | > 100 µM (inactive) | > 100 µM (inactive) | > 100 µM (inactive) | > 100 µM (inactive)
Cc1ccc2c(c1)[nH]c(=S)n2C=C(C(N)=O)C(N)=O | > 100 µM (inactive) | > 100 µM (inactive) | > 100 µM (inactive) |  | 33.3 µM (inactive) | > 100 µM (inactive) | > 100 µM (inactive) | > 100 µM (inactive) | > 100 µM (inactive) | > 100 µM (inactive) | > 100 µM (inactive) |  | > 100 µM (inactive) | > 100 µM (inactive) | > 100 µM (inactive) |  | > 100 µM (inactive) |  | > 100 µM (inactive)
